Patent publication US8389247B2, “Physiogenomic method for predicting diabetes and metabolic syndromes induced by psychotropic drugs” (priority 2006, dated 2013)

Assay: Outcome variables of patients on each psychotropic drug broken down by demographic factors (Covariates tables)
Type: in vivo, human
Excerpt: Various SNPs associated with, for example, the observation of various parameters of metabolic syndromes in patients on psychotropic drugs were screened. The endpoints analyzed were the blood levels of LDL, HDL, and glucose; blood pressure; body mass index; waist circumference; and metabolic syndromes index. The physiogenomic model was developed using the following procedure: 1) Establish a covariate model using only the demographic and clinical variables, 2) Screen for associated genetic markers by testing each SNP against the unexplained residual of the covariate model, and 3) Establish a revised model incorporating the significant associations from the SNP screen.

OCCOCCN1CCN(C2=Nc3ccccc3Sc3ccccc32)CC1 [Quetiapine, quetiapine]
LDL (LDL cholesterol level) (Age 20-30): 91.35 | LDL (LDL cholesterol level) (Age 30-40): 102.92 | LDL (LDL cholesterol level) (Age 40-50): 94.39 | LDL (LDL cholesterol level) (Age 50-60): 97.33 | LDL (LDL cholesterol level) (Age 60-70): 88.00 | LDL (LDL cholesterol level) (Age <20): 87.40 | LDL (LDL cholesterol level) (All patients on the drug): 96.71 | LDL (LDL cholesterol level) (Gender female): 92.89 | LDL (LDL cholesterol level) (Gender male): 99.19 | LDL (LDL cholesterol level) (Heritage AA): 94.38 | LDL (LDL cholesterol level) (Heritage Cauc.): 96.93 | BM (human, in vivo): 87.05 | BMI (human, in vivo): 29.44 | Glucose (human, in vivo): 92.08 | HDL (human, in vivo): 49.79 | Log (TG) (human, in vivo): 5.263 | MSI (human, in vivo): 0.2625 | TC (human, in vivo): 192.33 | dBP (human, in vivo): 75.04 | sBP (human, in vivo): 120.07 | LDL (patients on the named drug): 96.71
